Test system: 388556-164-R-J1-PDC complex spheroid viability
Assay: Anticancer human tumor 388556-164-R-J1-PDC patient-derived colon adenocarcinoma cell line growth inhibition [RAS]
Details: for IC50: curve of first compound; for viability, T/C: stronger effect = lower value; active = viability on the fitted dose curve at most 10% of control; inactive = the rest
How it was run: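 Multi-cell-type spheroids: tumor cells plus HUVEC endothelial cells and mesenchymal stem cells. RAS-pathway inhibitors were combined with targeted agents, each dosed in half-log steps down from clinical Cmax, or from 10 microM when Cmax was unknown.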

[1] = second compound 0.00316 µM, first compound 0.0316 µM
[2] = second compound 0.00316 µM, first compound 0.1 µM
[3] = second compound 0.01 µM, first compound 0.0316 µM
[4] = second compound 0.01 µM, first compound 0.1 µM
[5] = second compound 0.0316 µM, first compound 0.0316 µM
[6] = second compound 0.0316 µM, first compound 0.1 µM
[7] = second compound 0.1 µM, first compound 0.0316 µM
[8] = second compound 0.1 µM, first compound 0.1 µM
[9] = second compound 0.316 µM, first compound 0.0316 µM
[10] = second compound 0.316 µM, first compound 0.1 µM
[11] = second compound 1 µM, first compound 0.0316 µM
[12] = second compound 1 µM, first compound 0.1 µM
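Note: spheroids exposed to compound for 7 days before readout.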
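Throughout, for viability, T/C: 100% = DMSO vehicle control luminescence.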

CC(C)NCC(C(=O)N1CCN(c2ncnc3c2C(C)CC3O)CC1)c1ccc(Cl)cc1 (centres undefined) + C=CC(=O)N1CCN(c2nc(OCC3CCCN3C)nc3c(F)c(-c4nc(N)cc(C)c4C(F)(F)F)c(Cl)cc23)C(C)C1
> 10 µM: IC50 (second compound 0.00316 µM) | IC50 (second compound 0.01 µM) | IC50 (second compound 0.0316 µM) | IC50 (second compound 0.1 µM) | IC50 (second compound 0.316 µM) | IC50 (second compound 1 µM)
inactive: viability, T/C [1] 117% | viability, T/C [2] 116% | viability, T/C (second compound 0.00316 µM, first compound 0.316 µM) 107% | viability, T/C (second compound 0.00316 µM, first compound 1 µM) 95.5% | viability, T/C (second compound 0.00316 µM, first compound 3.16 µM) 102% | viability, T/C (second compound 0.00316 µM, first compound 10 µM) 102% | viability, T/C [3] 106% | viability, T/C [4] 110% | viability, T/C (second compound 0.01 µM, first compound 0.316 µM) 103% | viability, T/C (second compound 0.01 µM, first compound 1 µM) 108% | viability, T/C (second compound 0.01 µM, first compound 3.16 µM) 90.9% | viability, T/C (second compound 0.01 µM, first compound 10 µM) 105% | viability, T/C [5] 97.2% | viability, T/C [6] 113% | viability, T/C (second compound 0.0316 µM, first compound 0.316 µM) 110% | viability, T/C (second compound 0.0316 µM, first compound 1 µM) 103% | viability, T/C (second compound 0.0316 µM, first compound 3.16 µM) 105% | viability, T/C (second compound 0.0316 µM, first compound 10 µM) 94.2% | viability, T/C [7] 108% | viability, T/C [8] 103% | viability, T/C (second compound 0.1 µM, first compound 0.316 µM) 99.5% | viability, T/C (second compound 0.1 µM, first compound 1 µM) 106% | viability, T/C (second compound 0.1 µM, first compound 3.16 µM) 95.9% | viability, T/C (second compound 0.1 µM, first compound 10 µM) 91% | viability, T/C [9] 106% | viability, T/C [10] 112% | viability, T/C (second compound 0.316 µM, first compound 0.316 µM) 105% | viability, T/C (second compound 0.316 µM, first compound 1 µM) 99.3% | viability, T/C (second compound 0.316 µM, first compound 3.16 µM) 111% | viability, T/C (second compound 0.316 µM, first compound 10 µM) 99.1% | viability, T/C [11] 106% | viability, T/C [12] 104% | viability, T/C (second compound 1 µM, first compound 0.316 µM) 118% | viability, T/C (second compound 1 µM, first compound 1 µM) 99.8% | viability, T/C (second compound 1 µM, first compound 3.16 µM) 100% | viability, T/C (second compound 1 µM, first compound 10 µM) 99.4%

CC(C)n1nc(-c2ccc3oc(N)nc3c2)c2c(N)ncnc21 + C=CC(=O)N1CCN(c2nc(OCC3CCCN3C)nc3c(F)c(-c4nc(N)cc(C)c4C(F)(F)F)c(Cl)cc23)C(C)C1
0.0646 µM: IC50 (second compound 0.0316 µM)
0.075 µM: IC50 (second compound 0.316 µM)
inactive: viability, T/C (second compound 0.00316 µM, first compound 0.000316 µM) 102% | viability, T/C (second compound 0.00316 µM, first compound 0.001 µM) 98.2% | viability, T/C (second compound 0.00316 µM, first compound 0.00316 µM) 91.9% | viability, T/C (second compound 0.00316 µM, first compound 0.01 µM) 74.8% | viability, T/C [1] 66.5% | viability, T/C [2] 42.7% | viability, T/C (second compound 0.01 µM, first compound 0.000316 µM) 100% | viability, T/C (second compound 0.01 µM, first compound 0.001 µM) 95.3% | viability, T/C (second compound 0.01 µM, first compound 0.00316 µM) 95.3% | viability, T/C (second compound 0.01 µM, first compound 0.01 µM) 76.7% | viability, T/C [3] 56% | viability, T/C [4] 47.8% | viability, T/C (second compound 0.0316 µM, first compound 0.000316 µM) 104% | viability, T/C (second compound 0.0316 µM, first compound 0.001 µM) 95.6% | viability, T/C (second compound 0.0316 µM, first compound 0.00316 µM) 80.1% | viability, T/C (second compound 0.0316 µM, first compound 0.01 µM) 76% | viability, T/C [5] 59.6% | viability, T/C [6] 43.5% | viability, T/C (second compound 0.1 µM, first compound 0.000316 µM) 96.2% | viability, T/C (second compound 0.1 µM, first compound 0.001 µM) 108% | viability, T/C (second compound 0.1 µM, first compound 0.00316 µM) 83.2% | viability, T/C (second compound 0.1 µM, first compound 0.01 µM) 84.5% | viability, T/C [7] 63% | viability, T/C [8] 46.1% | viability, T/C (second compound 0.316 µM, first compound 0.000316 µM) 99.7% | viability, T/C (second compound 0.316 µM, first compound 0.001 µM) 98% | viability, T/C (second compound 0.316 µM, first compound 0.00316 µM) 92.2% | viability, T/C (second compound 0.316 µM, first compound 0.01 µM) 79.6% | viability, T/C [9] 59.4% | viability, T/C [10] 46.9% | viability, T/C (second compound 1 µM, first compound 0.000316 µM) 90.6% | viability, T/C (second compound 1 µM, first compound 0.001 µM) 99.9% | viability, T/C (second compound 1 µM, first compound 0.00316 µM) 95.2% | viability, T/C (second compound 1 µM, first compound 0.01 µM) 81.1% | viability, T/C [11] 55.4% | viability, T/C [12] 43.1%
0.069 µM: IC50 (second compound 0.00316 µM)
0.0514 µM: IC50 (second compound 1 µM)
0.0772 µM: IC50 (second compound 0.1 µM)
0.0743 µM: IC50 (second compound 0.01 µM)

— PubChem BioAssay AID2060907 (Molecular Pharmacology Branch, DTP, NCI, 2025)
